Reference: US11179450B2, “Long chain antigen containing interepitope sequence that promotes antigen presentation to T cells” (MIE UNIVERSITY, priority 2013, dated 2021)

Columns and labels:
[1] = system: mERK2 9m specific CD8+ T cells; assay: Specific CD8+ T cell induction in mice, intracellular cytokine staining (mERK2 9m epitope); format: in vivo, BALB/c mice
Description: (§1) Long chain peptide antigens MEN, all containing three types of mouse CD8+ T cell epitope sequences (MA p265 (Sequence No. 27), NY p81 (Sequence No. 29), and mERK2 9m (Sequence No. 28)), were synthesized. The interepitope sequences between the respective epitopes were one to six consecutive tyrosines (Sequence Nos. 1 and 9-12). Vaccines containing the respective long chain peptide antigens were administered to mice in the same manner as in FIG. 1 and the frequencies of CD8+ T cells specific to the respective epitope sequences were measured by the intracellular cytokine staining method.
Long chain peptide antigens MEN, all containing three types of mouse CD8+ T cell epitope sequences (MA p265 (Sequence No. 27), NY p81 (Sequence No. 29), and mERK2 9m (Sequence No. 28)), were synthesized. The interepitope sequences between the respective epitopes were five to ten consecutive tyrosines (Sequence Nos. 1 and 13-15). Vaccines containing the respective long chain peptide antigens were administered to mice in the same manner as in FIG. 1 and the frequencies of CD8+ T cells specific to the respective epitope sequences were measured by the intracellular cytokine staining method.
Each CHP/long chain peptide complex as the vaccine and the CpG oligo DNA as the adjuvant were administered at the same time to a mouse. Administration was performed by subcutaneous injection on the back of the mouse. As the dose, the CHP/long chain peptide complex was administered at 0.05 to 0.1 mg equivalent of long chain peptide per administration. The CpG oligo DNA was administered at 0.05 mg per administration. One week after the final administration, spleen cells were separated by the following procedure from each vaccine-administered mouse. The spleen was isolated from the mouse and removed of blood by rinsing with RPMI1640 medium. After the spleen was triturated using a glass slide, the released cells were collected in RPMI1640 medium. After centrifuging (400×g, 5 minutes, 4° C.), the supernatant was removed and the cells were treated for 1 minute by adding 2 mL of ACK solution. […]

[2] = system: NY p81 specific CD8+ T cells; assay: Specific CD8+ T cell induction in mice, intracellular cytokine staining (NY p81 epitope); format: in vivo, BALB/c mice; settings: FIG. 6; comparing one to six tyrosines
Source text: A long chain peptide antigen ESO1 LP (native type) (Sequence No. 16) and a long chain peptide antigen ESO1 LP (Y6) (Sequence No. 17), both containing a mouse CD8+ T cell epitope sequence (NY p81 or NY p82) and a mouse CD4+ T cell epitope sequence (NY p91) that are derived from human NY-ESO-1 antigen, were synthesized. As the interepitope sequence between epitopes, the native amino acid sequence of NY-ESO-1 was retained in the ESO1 LP (native type) and the sequence of six consecutive tyrosines (Y6) was used in the ESO1 LP (Y6). Vaccines containing the respective long chain peptide antigens were administered to mice in the same manner as in FIG. 1 and the frequencies of CD8+ T cells and CD4+ T cells specific to the respective epitope sequences were measured by the intracellular cytokine staining method.
as §1
Long chain peptide antigens MEN, all containing three types of mouse CD8+ T cell epitope sequences (MA p265 (Sequence No. 27), NY p81 (Sequence No. 29), and mERK2 9m (Sequence No. 28)), were synthesized. The interepitope sequences between the respective epitopes were five to ten consecutive tyrosines (Sequence Nos. 1 and 13-15). Vaccines containing the respective long chain peptide antigens were administered to mice in the same manner as in FIG. 1 and the frequencies of CD8+ T cells specific to the respective epitope sequences were measured by the intracellular cytokine staining method. […]

In the case of “SNPARYEFLYYYYYYQYIHSANVLYYYYYYRGPESRLL (Long chain peptide antigen, containing three types of mouse CD8+ T cell epitope sequences (MA p265, NY p81, and mERK2 9m)) [MEN(Y6)]”, the “induction of specific CD8+ T cells, mERK2 9m (second epitope)” value ([1]; FIG. 6, comparing one to six tyrosines) is reported as “observed to some degree”, the “induction of specific CD8+ T cells, mERK2 9m (second epitope)” value ([1]; FIG. 7, comparing five to ten tyrosines) is reported as “highest” and the “induction of specific CD8+ T cells, NY p81 (third epitope)” value [2] is reported as “highest”.
